{
  "source": "PubChem BioAssay AID651976",
  "about": "(The Scripps Research Institute Molecular Screening Center, 2013)",
  "note": "Active and inactive are the calls of the source. No rule for the calls is given here.",
  "data": [
    {"molecular_target": "Nuclear receptor subfamily 5 group A member 2 (Homo sapiens) (UniProt O00482)", "sequence (O00482 whole entry, looked up)": "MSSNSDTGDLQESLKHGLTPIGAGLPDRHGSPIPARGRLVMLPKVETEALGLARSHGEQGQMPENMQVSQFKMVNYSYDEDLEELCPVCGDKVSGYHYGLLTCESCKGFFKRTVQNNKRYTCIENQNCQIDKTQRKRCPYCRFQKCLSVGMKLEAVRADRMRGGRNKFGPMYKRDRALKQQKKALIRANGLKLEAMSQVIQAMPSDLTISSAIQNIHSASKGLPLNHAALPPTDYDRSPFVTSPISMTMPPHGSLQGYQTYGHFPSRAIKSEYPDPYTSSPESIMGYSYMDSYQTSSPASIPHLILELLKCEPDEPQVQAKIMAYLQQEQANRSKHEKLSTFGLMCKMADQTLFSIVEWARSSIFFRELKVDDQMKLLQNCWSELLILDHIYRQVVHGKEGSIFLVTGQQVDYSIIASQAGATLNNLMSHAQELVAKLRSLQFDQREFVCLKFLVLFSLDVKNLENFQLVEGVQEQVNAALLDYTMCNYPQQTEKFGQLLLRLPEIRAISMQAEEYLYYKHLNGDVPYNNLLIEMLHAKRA", "test": "concentration-dependent NR5A2 reporter suppression – cell-based, luminescence, late stage, dose response (AID 651976)", "details": "cell-based LRH-1 luciferase reporter, inverse agonist", "values": [
      {"compound": "Cc1cc(Br)ccc1NC(=O)CSc1nnc(CN2CCOCC2)n1C", "IC50": "7.86 µM"},
      {"compound": "N#CCSc1ccccc1NC(=O)CN1C(=O)C2CC=CCC2C1=O", "note": "(stereo not drawn)", "IC50": "inactive"},
      {"compound": "COc1ccc(C2(C)NC(=O)N(CC(=O)NCCC3=CCCCC3)C2=O)cc1OC", "note": "(stereo not drawn)", "IC50": "> 35.9 µM (inactive)"},
      {"compound": "CCc1c(C)nc(SCC(=O)Nc2ccc3c(c2)OCCO3)[nH]c1=O", "IC50": "7.54 µM"},
      {"compound": "CC(=O)Nc1ncc(Cc2cc(Cl)ccc2Cl)s1", "IC50": "8.57 µM"},
      {"compound": "CCn1c(SCC(=O)Nc2ccc(Cl)cc2)nnc1C1CC1", "IC50": "> 35.9 µM (inactive)"},
      {"compound": "Cc1ccc2cccc(OCC(=O)NCCC3=CCCCC3)c2n1", "IC50": "1.83 µM"},
      {"compound": "COc1ccc(NC(=O)CN2C(=O)NC3(CCCC3)C2=O)cc1", "IC50": "> 35.9 µM (inactive)"},
      {"compound": "O=C(CSc1nnc(CNC(=O)c2c(F)cccc2F)o1)Nc1ccc2c(c1)OCCO2", "IC50": "7.05 µM"},
      {"compound": "COC(=O)c1ccc(CNC(=O)COC(=O)c2cc(Cl)nc(Cl)c2)cc1", "IC50": "3.04 µM"},
      {"compound": "COc1ccc(CCNC(=O)COC(=O)C23CC4CC(CC(C4)C2)C3)cc1", "IC50": "1.47 µM"},
      {"compound": "COc1ccc(CCNC(=O)COC(=O)c2cc(Cl)nc(Cl)c2)cc1", "IC50": "> 35.9 µM (inactive)"},
      {"compound": "O=C(COC(=O)c1ccc(=O)n(Cc2ccccc2)n1)Nc1ccc2c(c1)OCCO2", "IC50": "> 35.9 µM (inactive)"},
      {"compound": "O=C(OCC(=O)N1CCN(C(=O)COC(=O)c2ccc(O)cc2O)CC1)c1ccc(O)cc1O", "IC50": "1.37 µM"},
      {"compound": "CCCc1cc(=O)oc2c(C)c(OCC(=O)NCCN3CCOCC3)ccc12", "IC50": "> 35.9 µM (inactive)"},
      {"compound": "COc1ccc(CCNC(=O)COC(=O)Cc2ccccc2[N+](=O)[O-])cc1", "IC50": "> 35.9 µM (inactive)"},
      {"compound": "NC(=O)C1CCN(C(=O)COc2ccc3c4c(c(=O)oc3c2)CCCC4)CC1", "IC50": "> 12 µM (inactive)"},
      {"compound": "COC(=O)c1ccc(NC(=O)CSc2nc3ncccc3[nH]2)cc1", "IC50": "> 35.9 µM (inactive)"},
      {"compound": "O=C(COC(=O)c1ccc(Br)cc1)Nc1ccccc1Br", "IC50": "4.11 µM"},
      {"compound": "O=C(CN1C(=O)CCC1=O)Nc1ccc(Br)cc1", "IC50": "2.25 µM"},
      {"compound": "CC(=O)c1ccc(OC(C)C(=O)OCC(=O)NCCc2ccccc2)cc1", "note": "(stereo not drawn)", "IC50": "> 35.9 µM (inactive)"},
      {"compound": "CCc1cc(=O)oc2c(C)c(OCC(=O)NCCN3CCOCC3)ccc12", "IC50": "> 35.9 µM (inactive)"},
      {"compound": "CCc1cc(=O)[nH]c(SCC(=O)Nc2ccc3c(c2)OCCO3)n1", "IC50": "> 35.9 µM (inactive)"},
      {"compound": "COC(=O)c1ccc(NC(=O)CSc2nncn2-c2cccnc2)cc1", "IC50": "> 35.9 µM (inactive)"},
      {"compound": "COCCn1c(C)cc(/C=C(\\C#N)C(=O)OCC(=O)Nc2ccc(S(N)(=O)=O)cc2)c1C", "IC50": "> 35.9 µM (inactive)"},
      {"compound": "COC(=O)c1ccc(NC(=O)CN2CCN(c3ccc(Cl)cc3)CC2)cc1", "IC50": "> 35.9 µM (inactive)"},
      {"compound": "COc1ccc(NC(=O)COC(=O)c2c(-c3ccccc3)noc2C)cc1", "IC50": "0.677 µM"},
      {"compound": "O=C(COc1ccc2c3c(c(=O)oc2c1)CCCC3)NCc1ccccn1", "IC50": "> 35.9 µM (inactive)"},
      {"compound": "COc1ccc(NC(=O)COC(=O)c2cc(S(=O)(=O)N3CCCC3)ccc2O)cc1", "IC50": "> 35.9 µM (inactive)"},
      {"compound": "O=C(CSc1nnc(CNC(=O)c2ccccc2F)o1)Nc1ccc2c(c1)OCCO2", "IC50": "0.732 µM"},
      {"compound": "Cc1cc(OCC(=O)Nc2nccs2)c2c(C)cc(=O)oc2c1", "IC50": "1.25 µM"},
      {"compound": "O=C1CCCN2N=C(SCC(=O)Nc3ccc(Br)cc3)SC2=N1", "IC50": "> 35.9 µM (inactive)"},
      {"compound": "Cc1cc(=O)oc2c(C)c(OCC(=O)NC3CC(C)(C)NC(C)(C)C3)ccc12", "IC50": "> 35.9 µM (inactive)"},
      {"compound": "COc1ccc(CCNC(=O)CSc2ccc(NC(C)=O)cc2)cc1OC", "IC50": "5.44 µM"},
      {"compound": "Cc1ccc(NC(=O)COC(=O)C(NS(=O)(=O)c2ccc(Cl)cc2)C(C)O)cc1C", "note": "(stereo not drawn)", "IC50": "1.67 µM"},
      {"compound": "CCOc1ccc(OCCC(=O)OCC(=O)Nc2ccc3c(c2)OCCO3)cc1", "IC50": "> 35.9 µM (inactive)"},
      {"compound": "Cc1cccc(NC(=O)COC(=O)Cc2cccs2)c1C", "IC50": "> 35.9 µM (inactive)"},
      {"compound": "O=C(NCC1CCCO1)c1ccc(NC(=O)c2cccc([N+](=O)[O-])c2)cc1", "note": "(stereo not drawn)", "IC50": "0.386 µM"},
      {"compound": "COC(=O)c1ccc(NC(=O)COc2cccc(-n3cnnn3)c2)cc1", "IC50": "2.3 µM"},
      {"compound": "CCOc1ccc(NC(=O)CSc2nncc(=O)n2N)cc1", "IC50": "> 12 µM (inactive)"},
      {"compound": "CCCc1cc(=O)oc2cc(OCC(=O)NCCc3ccc(S(N)(=O)=O)cc3)ccc12", "IC50": "> 35.9 µM (inactive)"},
      {"compound": "CCOc1ccc(NC(=O)CSc2nnc(C(C)C)n2CC)cc1", "IC50": "> 12 µM (inactive)"},
      {"compound": "Cc1cc(Br)ccc1NC(=O)CN1C(=O)CCC1=O", "IC50": "1.06 µM"},
      {"compound": "COc1ccc(NS(=O)(=O)c2ccc(OCC(=O)N3CCN(C)CC3)cc2)cc1Cl", "IC50": "5.3 µM"},
      {"compound": "CCCc1nnc(SCC(=O)Nc2ccc(C(=O)OCC)cc2)o1", "IC50": "> 35.9 µM (inactive)"},
      {"compound": "CC(=O)c1ccc(NC(=O)C(C)O/N=C(\\N)c2ccccc2)cc1", "note": "(stereo not drawn)", "IC50": "7.64 µM"},
      {"compound": "O=C(Nc1ccccc1)c1oc2ccccc2c1NC(=O)C1CC1", "IC50": "9.07 µM"},
      {"compound": "O=C(COc1ccc2c3c(c(=O)oc2c1)CCC3)NCc1ccncc1", "IC50": "> 35.9 µM (inactive)"},
      {"compound": "Cc1ccc(NC(=O)CSc2sc3c(O)cc(=O)[nH]c3c2C#N)c(F)c1", "IC50": "> 35.9 µM (inactive)"},
      {"compound": "O=C(COC(=O)c1ccc[n+]([O-])c1)Nc1ccc([N+](=O)[O-])cc1Cl", "IC50": "7.19 µM"},
      {"compound": "COc1ccc(CC(NC(C)=O)C(=O)NC2CCN(c3nnnn3-c3ccccc3)CC2)cc1", "note": "(stereo not drawn)", "IC50": "0.779 µM"},
      {"compound": "Cc1ccc(NC(=O)CSc2nc3[nH]c(=O)cc(O)c3s2)c(Br)c1", "IC50": "inactive"},
      {"compound": "Cc1nn(CC(=O)Nc2ccc3c(c2)OCCO3)c(C)c1[N+](=O)[O-]", "IC50": "> 35.9 µM (inactive)"},
      {"compound": "CC(C)CC1(C)NC(=O)N(CC(=O)Nc2ccc3c(c2)OCCO3)C1=O", "note": "(stereo not drawn)", "IC50": "> 35.9 µM (inactive)"},
      {"compound": "Cc1ccc(NC(=O)COC(=O)c2cc(=O)c3ccccc3o2)c(Br)c1", "IC50": "> 35.9 µM (inactive)"},
      {"compound": "COc1ccc(NC(=O)CSc2nc(N)c(-c3ccccc3)c(=O)[nH]2)cc1", "IC50": "1.64 µM"},
      {"compound": "CCCN(CC(=O)Nc1ccc(C(C)=O)cc1)CC(=O)Nc1ccccc1C", "IC50": "inactive"},
      {"compound": "O=C(CSc1nc(=O)n2cc(Cl)ccc2n1)Nc1ccc2c(c1)OCCO2", "IC50": "> 35.9 µM (inactive)"},
      {"compound": "CCCc1cc(=O)oc2c(C)c(OCC(=O)NCCCn3ccnc3)ccc12", "IC50": "> 35.9 µM (inactive)"},
      {"compound": "Cc1ccc(NC(=O)COC(=O)C(NS(=O)(=O)c2ccc(Cl)cc2)C(C)O)c(Br)c1", "note": "(stereo not drawn)", "IC50": "> 35.9 µM (inactive)"},
      {"compound": "COCC(=O)NC1CCN(CC(=O)Nc2ccc(OC)cc2[N+](=O)[O-])CC1", "IC50": "> 35.9 µM (inactive)"},
      {"compound": "O=c1[nH]c(Nc2ccc3c(c2)OCCO3)nnc1Cc1ccccc1", "IC50": "2.27 µM"},
      {"compound": "COc1ccccc1Oc1nnnn1-c1ccc(C(N)=O)cc1", "IC50": "9.86 µM"},
      {"compound": "Cc1ccc(-c2csc(NC(=O)c3ccc([N+](=O)[O-])o3)n2)cc1", "IC50": "> 35.9 µM (inactive)"},
      {"compound": "O=C(NCc1ccco1)c1nn(-c2ccccc2)c(=O)c2ccccc12", "IC50": "4.41 µM"},
      {"compound": "CC(=O)Nc1ccc(N=c2cc([N+](=O)[O-])cc(Cl)n2O)cc1", "IC50": "0.929 µM"},
      {"compound": "CCOc1ccc(NC(=O)COC(=O)CC2CCCCC2)cc1", "IC50": "> 35.9 µM (inactive)"},
      {"compound": "CCOc1ccc(NC(=O)CSc2nccn(-c3ccc4c(c3)OCCO4)c2=O)cc1", "IC50": "0.673 µM"},
      {"compound": "COc1ccc(NC(=O)CSc2sc3c(O)cc(=O)[nH]c3c2C#N)c(OC)c1", "IC50": "inactive"},
      {"compound": "COc1ccc(-n2c(N)c(C(=O)NCc3cccnc3)sc2=S)cc1", "IC50": "> 35.9 µM (inactive)"},
      {"compound": "Cc1sc(NC(=O)C(C)C)c(C(=O)Nc2ccccc2)c1C", "IC50": "8.16 µM"},
      {"compound": "CCOc1ccc(OCCN2C(=O)NC(Cc3c[nH]c4ccccc34)C2=O)cc1", "note": "(stereo not drawn)", "IC50": "> 35.9 µM (inactive)"},
      {"compound": "CCOc1ccc(NC(=O)CSc2nc3[nH]ncc3c(=O)[nH]2)cc1", "IC50": "1.13 µM"},
      {"compound": "Cc1cccc(NC(=O)COC(=O)CN2C(=O)c3ccccc3C2=O)c1C", "IC50": "> 35.9 µM (inactive)"},
      {"compound": "CC1SC(C)C(=O)N(CC(=O)Nc2ccc3c(c2)OCO3)C1=O", "note": "(stereo not drawn)", "IC50": "> 35.9 µM (inactive)"},
      {"compound": "COc1ccc(CCNC(=O)COC(=O)c2cccn2C)cc1", "IC50": "> 35.9 µM (inactive)"},
      {"compound": "O=C(COC(=O)CCN1C(=O)C2CC=CCC2C1=O)NCCc1ccc(F)cc1", "note": "(stereo not drawn)", "IC50": "> 35.9 µM (inactive)"},
      {"compound": "COc1ccc(CCNC(=O)CSc2nn3c(=O)c(C)nnc3s2)cc1OC", "IC50": "1.37 µM"}
    ]}
  ]
}
